In ChEMBL document CHEMBL4680286, “Design, synthesis and antibacterial evaluation of novel oxazolidinone derivatives nitrogen-containing fused heterocyclic moiety” (2021):
In brackets after ≈: the same amount, converted by molar mass.

Key:
Assay type in all cases: functional
[1] = test system: Staphylococcus aureus; assay: Antibacterial activity against methicillin-resistant Staphylococcus aureus
[2] = test system: Staphylococcus aureus; assay: Antibacterial activity against methicillin-sensitive Staphylococcus aureus
[3] = test system: Staphylococcus aureus; assay: Antibacterial activity against Staphylococcus aureus ATCC 29213
[4] = test system: Enterococcus faecalis; assay: Antibacterial activity against linezolid-resistant Enterococcus faecalis
[5] = test system: Enterococcus faecium; assay: Antibacterial activity against vancomycin-resistant Enterococcus faecium
[6] = test system: Enterococcus faecium; assay: Antibacterial activity against hospital acquired vancomycin-resistant Enterococcus faecium clinical isolates
[7] = test system: Enterococcus faecalis; assay: Antibacterial activity against hospital acquired linezolid-resistant Enterococcus faecalis clinical isolates
[8] = test system: Staphylococcus aureus; assay: Antibacterial activity against hospital acquired methicillin-resistant Staphylococcus aureus clinical isolates
[9] = test system: Staphylococcus aureus; assay: Antibacterial activity against hospital acquired methicillin-sensitive Staphylococcus aureus clinical isolates
[10] = test system: Enterococcus; assay: Antibacterial activity against Enterococcus
[11] = test system: Streptococcus; assay: Antibacterial activity against Streptococcus
[12] = test system: Staphylococcus; assay: Antibacterial activity against Staphylococcus

Structure (SMILES)	MIC [1]	MIC [2]	MIC [3]	MIC [4]	MIC [5]	MIC [6]	MIC [7]	MIC [8]	MIC [9]	MIC [10]	MIC [11]	MIC [12]
CC(=O)NC[C@H]1CN(c2ccc(-c3ccc(-c4nc5ccccn5n4)cc3)c(F)c2)C(=O)O1	1 µg/mL (≈ 2.24 µM)	2 µg/mL (≈ 4.49 µM)	2 µg/mL (≈ 4.49 µM)	1 µg/mL (≈ 2.24 µM)	0.5 µg/mL (≈ 1.12 µM)							
CC(=O)NC[C@H]1CN(c2ccc(-c3ccc(-c4nc5n(n4)CCNC5)cc3)c(F)c2)C(=O)O1	2 µg/mL (≈ 4.44 µM)	1 µg/mL (≈ 2.22 µM)	2 µg/mL (≈ 4.44 µM)	1 µg/mL (≈ 2.22 µM)	1 µg/mL (≈ 2.22 µM)							
CC(=O)NC[C@H]1CN(c2ccc(-c3ccc(-c4nnc5ccccn45)cc3)c(F)c2)C(=O)O1	2 µg/mL (≈ 4.49 µM)	1 µg/mL (≈ 2.24 µM)	2 µg/mL (≈ 4.49 µM)	1 µg/mL (≈ 2.24 µM)	2 µg/mL (≈ 4.49 µM)							
CC(=O)NC[C@H]1CN(c2ccc(-c3ccc(-c4cc5n(n4)CCN(C)C5)cc3)c(F)c2)C(=O)O1	1 µg/mL (≈ 2.16 µM)	1 µg/mL (≈ 2.16 µM)	1 µg/mL (≈ 2.16 µM)	1 µg/mL (≈ 2.16 µM)	0.5 µg/mL (≈ 1.08 µM)							
CC(=O)NC[C@H]1CN(c2ccc(-c3ccc(-c4nc5cnccn5n4)cc3)c(F)c2)C(=O)O1	0.5 µg/mL (≈ 1.12 µM)	0.5 µg/mL (≈ 1.12 µM)	0.5 µg/mL (≈ 1.12 µM)	0.5 µg/mL (≈ 1.12 µM)	0.5 µg/mL (≈ 1.12 µM)	0.5 µg/mL (≈ 1.12 µM)	0.5 µg/mL (≈ 1.12 µM)	0.5 µg/mL (≈ 1.12 µM)	0.5 µg/mL (≈ 1.12 µM)			
CC(=O)NC[C@H]1CN(c2ccc(-c3ccc(-c4cc5n(n4)CCNC5)cc3)c(F)c2)C(=O)O1	2 µg/mL (≈ 4.45 µM)	2 µg/mL (≈ 4.45 µM)	2 µg/mL (≈ 4.45 µM)	2 µg/mL (≈ 4.45 µM)	0.5 µg/mL (≈ 1.11 µM)							
CC(=O)NC[C@H]1CN(c2ccc(-c3ccc(-c4nnc5cnccn45)cc3)c(F)c2)C(=O)O1	1 µg/mL (≈ 2.24 µM)	1 µg/mL (≈ 2.24 µM)	1 µg/mL (≈ 2.24 µM)	1 µg/mL (≈ 2.24 µM)	1 µg/mL (≈ 2.24 µM)							
CC(=O)NC[C@H]1CN(c2ccc(-c3ccc(CNCc4cnn[nH]4)cc3)c(F)c2)C(=O)O1 [RADEZOLID]	0.5 µg/mL (≈ 1.14 µM)	0.5 µg/mL (≈ 1.14 µM)	0.5 µg/mL (≈ 1.14 µM)	0.5 µg/mL (≈ 1.14 µM)	0.5 µg/mL (≈ 1.14 µM)					0.125 µg/mL (≈ 0.285 µM)	0.125 µg/mL (≈ 0.285 µM)	0.125 µg/mL (≈ 0.285 µM)
CC(=O)NC[C@H]1CN(c2ccc(N3CCOCC3)c(F)c2)C(=O)O1 [LINEZOLID]	1 µg/mL (≈ 2.96 µM)	1 µg/mL (≈ 2.96 µM)	1 µg/mL (≈ 2.96 µM)	> 16 µg/mL	2 µg/mL (≈ 5.93 µM)	1 µg/mL (≈ 2.96 µM)	> 16 µg/mL	1 µg/mL (≈ 2.96 µM)	1 µg/mL (≈ 2.96 µM)			
CC(=O)NC[C@H]1CN(c2ccc(-c3ccc(-c4nc5n(n4)CCN(C)C5)cc3)c(F)c2)C(=O)O1	1 µg/mL (≈ 2.15 µM)	1 µg/mL (≈ 2.15 µM)	1 µg/mL (≈ 2.15 µM)	2 µg/mL (≈ 4.31 µM)	1 µg/mL (≈ 2.15 µM)							
